The conditions of series [1]: cited from earlier work.
The conditions of series [2]: intranasal aqueous solution with dimethyl-β-cyclodextrin, compared to the IV route; cited from earlier work.
The conditions of series [3]: transdermal patches; cited from earlier work.
For series [4] the following is noted: porous particles, Andersen cascade Impaction; cited from earlier work.
The conditions of series [5]: 0.1% w/v drug, HFA134a.
Series [6] can be described thus: Andersen Cascade Impactor (ACI) deposition studies of HFA solution pMDIs. It counts as physicochemical. The procedure: All impaction studies were conducted with formulations contained in cut edge anodised aluminium cans fitted with 50 μl or 100 μl valves. The studies were carried out using an Andersen Cascade Impactor (ACI) fitted with a USP XXII metal throat entry port. The ACI was operated at a flow rate of 28.3±2 l min^−1. All solution HFA formulations were discharged into the ACI through an actuator having an orifice diameter of 0.22 mm. Deposition of the drug on each ACI plate was determined by high pressure liquid chromatography (HPLC). MMAD values and corresponding geometric standard deviations (GSD) were calculated from plots of the cumulative percentage undersize of drug collected on each ACI plate (probit scale), against the upper cut off diameter for each respective ACI plate (log 10 scale).

[7] abbreviates: 0.1% w/v (50 μg/dose), 5% w/w ethanol, 0.1% w/w glycerol, HFA134a, ten shots.

Where two headings read alike, the source gives them in different places. Where only a bound is given, the exact number is not on record here.

In the case of 17β-Oestradiol, the peak plasma concentration is 294 pg/mL in series [1] (sublingual, 0.25 mg); 245 pg/mL in series [1] (sublingual, 0.5 mg); 451 pg/mL in series [1] (sublingual, 1.0 mg). The “time to peak plasma concentration” value in series [1] (sublingual, 0.25, 0.5 and 1.0 mg) is at most 1 h. Further, the 17β-oestradiol levels result in series [1] (sublingual, after 6 hours) is “less than 60 pg/ml”. Also, the bioavailability entry in series [2] is recorded as “approximately 65%”. In addition, the “mean serum oestradiol levels” value in series [3] is 70 to 90 pg/mL. The fine particle fraction entry in series [4] is given as “approximately 33%”.

Turning to `C[C@]12CC[C@@H]3c4ccc(OC(=O)c5ccccc5)cc4CC[C@H]3[C@@H]1CC[C@@H]2O` [Formulation 3-Benzoate], the Solubility entry in series [5] (13% w/w ethanol, no glycerol) is “Insoluble”.

In the case of `C[C@]12CC[C@@H]3c4ccc(O)cc4CC[C@H]3[C@@H]1CC[C@@H]2OC(=O)CCC1CCCC1` [Formulation 17-Cypionate], the Solubility entry in series [5] (5% w/w ethanol, 0.1% w/w glycerol) was “Insoluble”.

For the compound `CCCCCCC(=O)O[C@H]1CC[C@H]2[C@@H]3CCc4cc(O)ccc4[C@H]3CC[C@]12C` [Formulation 17-Enanthate, β-oestradiol enanthate], in series [6] (setting [7]), the GSD was determined as 1.7, the MMAD was found to be 1.5 μm, the “fine particle dose (FPD)” value is 38.8 µg and the “fine particle fraction (FPF)” value came out at 78.5%.

For “β-oestradiol-3,17-dipropionate [β-oestradiol 3,17-dipropionate]”, the MMAD in series [6] (200 μg/dose (0.4% w/v), 0% w/w ethanol, HFA 134a) is 0.90 μm; in series [6] (200 μg/dose (0.4% w/v), 2% w/w ethanol, HFA 134a), 1.50 μm; in series [6] (200 μg/dose (0.4% w/v), 5% w/w ethanol, HFA 134a), 1.50 μm; in series [6] (500 μg/dose (1% w/v), 5% w/w ethanol, HFA 134a), 1.90 μm.

Source of the values: US20050209207A1, “Aerosol formulations containing esters of 3,17-dihydroxy oestratriene derivatives for pulmonary delivery” (priority 2002, published 2005).
